From paper PMC8931250, “A SURF4-to-proteoglycan relay mechanism that mediates the sorting and secretion of a tagged variant of sonic hedgehog” (Proceedings of the National Academy of Sciences of the …, 2022)
Values belong to the molecule of their own block, whether it stands above or below them.

Tests used:
GST-SURF4^49-60 = molecular target: T1, GST-SURF4^49-60 (Homo sapiens, UniProt O15260); experiment: Peptide bead pull down with purified GST-SURF4^49-60 as prey; type: binding; conditions: normalized to CW peptides; n = 3, mean ± SD (values only in Fig. 3O); anti-GST immunoblot; HK buffer pH 7.2, 4 °C
T1 construct: SURF4 (49-60) in the same buffer was in the calorimetric cell; made in house; host or cells: Escherichia coli
Procedure: (§1) Immunoprecipitation was performed as described ([27]). Purification of GST-tagged ShhN^25-49 and GST-tagged SURF4^49-60 was performed as described previously ([54]). GST pull down assays were performed as described previously ([54]). Peptide binding assay was performed as described previously ([27]). […]
in cold KOAc buffer (110 mM KOAc, 2 mM Mg(OAc)2, 20 mM Hepes, pH 7.2). Then cells were permeabilized by 0.03 mg/ml digitonin in KOAc buffer for 6 min at room temperature. The permeabilized cells were washed with cold KOAc buffer. […]
(§2) Binding assays between Myc- tagged SURF4 or Myc-tagged SURF4ED-AA and HA-tagged ShhN or ShhN∆33- 39 were performed by treating HEK293T cells co -transfected with plasmids encoding the indicated proteins in 1 × PBS containing 2 mM dithiobis[succinimidylpropionate] […] After incubation, the beads were washed 4 times with 1 ml of HK buffer (100 mM KCl, 20 mM Hepes, pH 7.2), and the bound material was analyzed by immunoblotting. […]
(§3) After incubation, the beads were washed three times with 500 µ l of HKT buffer and twice with 500 µ l of HK buffer, and the bound material was analyzed by immunoblotting. […]
(§4) reaction mixture for 1 h at 4 °C. The beads were washed four times with 500 µ l of HK buffer and analyzed […]
Label-free quantitative mass spectrometry […]

[1] = test system: packaging of ShhN-HA into transport vesicles; experiment: In vitro vesicle formation assay, packaging of ShhN-HA; type: cell-based
Procedure: (§5) To analyze whether the CW motif is important for the packaging of ShhN into COPII vesicles, we reconstituted vesicular release of ShhN in HEK293T cells (Fig. 1T). HEK293T cells transfected with 3xHA-tagged ShhN (ShhN-HA) were permeabilized by digitonin. After permeabilization, the semi-intact cells were washed with buffer to remove endogenous cytosolic proteins. Semi-intact cells were then incubated at 30 °C with rat liver cytosol (RLC), GTP, and an ATP regeneration system (ATPrS) in the presence or absence of a GTP hydrolysis defective mutant form of Sar1A, Sar1A (H79G). The vesicles released were then isolated by centrifugation and analyzed by immunoblotting (Fig. 1T). […] Deleting residues 33 to 49 (Fig. 1V) or deleting the CW motif (residues 33 to 39) in ShhN caused a significant reduction in the efficiency of packaging of ShhN into vesicles (Fig. 1W and quantification in Fig. 1X), while the abundance of ERGIC53 in transport vesicles was unchanged (Fig. 1Y). […]
as §4
(§6) Label-free quantitative mass spectrometry
(§7) Mass spectrometry was performed to identify the proteins involved in Shh secretion. […] Finally, the resulted peptides were analyzed by Mass Spectrometer. The tandem mass spectra were then subject to protein identification and label-free quantification by Proteome Discoverer. […]

[2] = test system: packaging of ERGIC53 into transport vesicles; experiment: In vitro vesicle formation assay, packaging of ERGIC53; type: cell-based; conditions: semi-intact HEK293T cells, rat liver cytosol, GTP, ATPrS, 0.5 µg Sar1A (H79G)
Procedure: as §5, §4, §6, §7

[3] = test system: COPII-dependent ER export; conditions: cited from earlier work
Procedure: To analyze whether the CW motif is important for the packaging of ShhN into COPII vesicles, we reconstituted vesicular release of ShhN in HEK293T cells (Fig. 1T). HEK293T cells transfected with 3xHA-tagged ShhN (ShhN-HA) were permeabilized by digitonin. After permeabilization, the semi-intact cells were washed with buffer to remove endogenous cytosolic proteins. Semi-intact cells were then incubated at 30 °C with rat liver cytosol (RLC), GTP, and an ATP regeneration system (ATPrS) in the presence or absence of a GTP hydrolysis defective mutant form of Sar1A, Sar1A (H79G). The vesicles released ...

SURF4-Myc = experiment: Crosslinking co-IP of SURF4-Myc with HA-tagged cargo; type: binding, human; conditions: HEK293T, 2 mM DSP
Procedure: as §1
Immunoprecipitation, protein purification, and binding assay
Immunoprecipitation of HA-tagged ShhN was performed by incubating 200 µl of 0.5 mg/ml cell lysates from HEK293T cells transfected with ShhN- HA in HKT buffer with 10 μl of compact anti-HA agarose affinity beads with mixing at 4 °C overnight. After incubation, the beads were washed 4 times with 1 ml of HK buffer (100 mM KCl, 20 mM Hepes, pH 7.2), and the bound material was analyzed by Coomassie blue staining and immunoblotting.
as §2, §3

ShhN-SURF4 interaction = experiment: Heparin competition in GST pull down of SURF4-HA by ShhN^25-49-GST; type: binding, human; conditions: n = 3
Procedure: as §1
Immunoprecipitation, protein purification, and binding assay […]
After incubation, the beads were washed 4 times with 1 ml of HK buffer (100 mM KCl, 20 mM Hepes, pH 7.2), and the bound material was analyzed by Coomassie blue staining and immunoblotting.
Binding assays between Myc- tagged SURF4 or Myc-tagged SURF4ED-AA and HA-tagged ShhN or ShhN∆33- 39 were performed by treating HEK293T cells co -transfected with plasmids encoding the indicated proteins in 1 × PBS containing 2 mM dithiobis[succinimidylpropionate] (DSP) and 2 mM CaCl2 at room temperature for 30 min, and then quenched with 25 mM Tris-HCl, pH 7.5. 200 µl of 0.5 mg/ml cell lysates were incubated with 10 μl of compact anti-HA agarose affinity beads with mixing at 4 °C overnight. After incubation, the beads were washed 4 times with 1 ml of HK buffer (100 mM KCl, 20 mM Hepes, pH 7.2), and the bound material was analyzed by immunoblotting. […]
as §3

CW peptides (KRRHPKKC) = molecular target: T2, CW peptides (KRRHPKKC) ( (human or mouse cDNA cloned)); experiment: ITC; isothermal titration calorimetry of CW peptides with GST-SURF4^49-60 or GST; conditions: both partners purified
T2 construct: Cardin-Weintraub (CW) motif of Shh, residues 33 to 39 in ShhN; C-terminal cysteine printed after the KRRHPKK motif; In the pull-downs the peptide was covalently linked to thiopyridone Sepharose 6B; also called peptides corresponding to the CW motif; source: synthetic peptide
T2 peptide: KRRHPKKC

Molecule: AAAHPAAC [CW(KR-AA), alanine substituted mutant (AAAHPAAC)]
level of GST-SURF4^49-60 bound relative to CW peptides (GST-SURF4^49-60): bound more efficiently to the wild-type CW sequence than an alanine substituted mutant

Molecule: Sar1A (H79G): GTP hydrolysis defective mutant form of Sar1A
efficiency of packaging of ShhN-HA into transport vesicles ([1]; HEK293Trex cells, SAR1A (H79G)): reduced the efficiency of packaging
efficiency of packaging of ShhN-HA into transport vesicles ([1]; semi-intact HEK293T cells, rat liver cytosol, GTP, ATPrS, 0.5 µg Sar1A (H79G)): greatly reduced
efficiency of packaging of ERGIC53 into transport vesicles [2]: greatly reduced
COPII-dependent ER export [3]: inhibits COPII-dependent ER export
membrane association of SEC23A/B [3]: enhances membrane association of SEC23A/B
vesicular capture of SEC22B and ERGIC53 [3]: abolishes the vesicular capture
vesicular release of TGN46 [3]: does not affect the vesicular release

Molecule: ShhN-HA: 3xHA-tagged N-terminal fragment of Shh without the cholesterol modification
percentage of SURF4-Myc bound to ShhN-HA vs CW motif-depleted ShhN (SURF4-Myc; n = 3): significantly higher than the percentage of SURF4-Myc that bound to ShhN^Δ33-39-HA
interaction with SURF4 vs IGF2 (SURF4-Myc; SURF4-Myc, HA beads): more robustly than IGF2

Molecule: VRRFRYPERPC [peptides corresponding to the first intracellular loop of Frizzled6 (…)]
level of GST-SURF4^49-60 bound relative to CW peptides (GST-SURF4^49-60): significantly lower than that bound to the CW peptides

Molecule: heparin
inhibition of the interaction between ShhN and SURF4 (ShhN-SURF4 interaction; GST pull down with ShhN^25-49-GST and SURF4-HA lysate): inhibited the interaction between ShhN and SURF4 in a concentration-dependent manner
inhibition of the ShhN-SURF4 interaction at pH 6.0 (ShhN-SURF4 interaction; pH 6.0): still inhibits the ShhN-SURF4 interaction

Kd (CW peptides (KRRHPKKC)): 2350 ± 90 nM
B1: GST-SURF4^49-60 (domain or fragment, human, UniProt O15260 49-60, looked up)
chain: SEQRDYIDTTWN
notes: first luminal loop of SURF4, amino acids 49 to 60; also called GST-tagged SURF4^49-60; source: E. coli, purified
